# Measured values as given in patent publication US20260216053A1, “COSMETIC COMPOSITION CONTAINING HOUTTUYNIA CORDATA FERMENTATION EXTRACT” (DAEBONG LS CO., LTD., priority 2022, published 2026).
# Tests used:
# Assay type in all cases: cell-based
# HaCaT cells = experiment: Evaluation of cytotoxicity, EZ-Cytox assay; details: for HaCaT cell growth rate: versus untreated group 100%
# Experimental: (§1) HaCaT cells, which are skin keratinocytes, were provided by Cell Line Service GmbH (Germany). The cells were cultured in 5% CO2 incubator at 37° C. using Dulbecco's modified Eagle's medium (DMEM) containing 1% penicillin-streptomycin and 10% fetal bovine serum (FBS). Subculturing was performed with 2-3 day intervals.
# The EZ-cytox assay is a representative method for measuring cell viability that utilizes the principle that a water-soluble tetrazolium salt (WST) reacts with the dehydrogenase of living cells to produce an orange-colored, water-soluble formazan.
# To examine cytotoxicity, HaCaT cells were seeded at 1.0×10^4 cells/well in a 96-well plate using DMEM medium containing 10% FBS, and cultured under the condition of 37° C. and 5% CO2 for 24 hours. After exchanging the medium with serum-free DMEM, the cultured cells were treated with a sample to be evaluated. After that, EZ-cytox was added to each well and reacted under the condition of 37° C. and 5% CO2 for 30 minutes, and then absorbance was measured at 450 nm using a microplate reader. The average absorbance value for each sample group was calculated, and this value was compared with the absorbance value of the control group to evaluate cell viability.
# [1] = tested on: hyaluronic acid production in HaCaT cells; experiment: Production of moisturizing factor hyaluronic acid (HA), ELISA; details: 24 hours, supernatant, FIG. 1 and FIG. 2
# Experimental: HaCaT cells, which are skin keratinocytes, were provided by Cell Line Service GmbH (Germany). The cells were cultured in 5% CO2 incubator at 37° C. using Dulbecco's modified Eagle's medium (DMEM) containing 1% penicillin-streptomycin and 10% fetal bovine serum (FBS). Subculturing was performed with 2-3 day intervals. HaCaT cells were seeded at 1.0×10^5 cells/well in a 24-well plate and cultured for 24 hours under the condition of 37° C. and 5% CO2. After the cultured cell medium was replaced with serum-free DMEM, a sample was treated at different concentrations and the cells were cultured for 24 hours. Afterwards, the supernatant from each test group was collected and the amount of hyaluronic acid (HA) produced in the medium was measured. A control group was treated with N-acetylglucosamine at a concentration of 10 mM. The measurement of hyaluronic acid production was performed using the Hyaluronan Quantikine ELISA kit (R&D Systems) according to the method provided by the manufacturer.
# [2] = tested on: filaggrin production in HaCaT cells; experiment: Production of moisturizing factor filaggrin (FLG), ELISA; details: 24 hours, cell lysate, FIG. 3 and FIG. 4
# Experimental: as §1
# HaCaT cells were seeded at 1.0×10^5 cells/well in a 24-well plate and cultured for 24 hours under the condition of 37° C. and 5% CO2. After the cultured cell medium was replaced with serum-free DMEM, a sample was treated at different concentrations and the cells were cultured for 24 hours. Afterwards, the cells of each test group were lysed and proteins were collected. Then, the amount of filaggrin produced in the culture medium extract was measured. The measurement of filaggrin production was performed using the Filaggrin ELISA kit (Cusabio Biotechnology Co., Ltd) according to the method provided by the manufacturer. The result of measuring the amount of filaggrin produced depending on the quercetin treatment is shown in FIG. 3, and the result of measuring the amount of filaggrin produced depending on the treatment with the extracts of the example and comparative example is shown in FIG. 4.
smiles,measurement,setting,value
"O=c1c(O)c(-c2ccc(O)c(O)c2)oc2cc(O)cc(O)c12 [Quercetin, quercetin]",HaCaT cell growth rate,HaCaT cells; 25 μM,104.3 ± 1.3%
same,HaCaT cell growth rate,HaCaT cells; 50 μM,105.9 ± 1.0%
same,HaCaT cell growth rate,HaCaT cells; 100 μM,109.4 ± 2.1%
same,HaCaT cell growth rate,HaCaT cells; 200 μM,92.8 ± 2.8%
same,Cytotoxicity for the skin keratinocytes,"HaCaT cells; HaCaT cells, tested concentrations of Table 2","none of the example, comparative example or quercetin exhibited cytotoxicity"
same,Production of hyaluronic acid,[1],promoted the production of the moisturizing factor hyaluronic acid
same,Production of filaggrin,[2],promoted the production of the moisturizing factor filaggrin
